Source: EP0516186A2, “Nucleosides and nucleoside analogues, pharmaceutical composition and processes for the preparation of the compounds” (priority 1987, dated 1988)

What was measured:
Type in all cases: cell-based
HIV (HTLV-IIIB) = assay: Effect on HIV in H9 cells (frequency of HIV antigen containing cells, immunofluorescence); conditions: Human immunodeficiency virus 1; H9 cells exposed to HIV (HTLV-IIIB), incubated 6 - 7 days; read-out: Concentration (µM) for 50 % inhibition (IC₅₀) of human immuno deficiency virus multiplication in cell culture
Procedure: Test I. Effect of compounds of the formula I on HIV in H9 cells
Materials and methods: HIV infection of H9 cells
H9 cells, 10⁵ cells per well on a 24 well plate, suspended in 2 ml RPMI-medium containing 10 % fetal calf serum, 100 µg/ml penicillin, 10 µg/ml streptomycin sulfate and 2 µg/ml polybrene are exposed to HIV (HTLV-IIIB) and different concentrations of the test compounds. The plates are incubated at 37°C in 5 % CO₂ for 6 - 7 days. The contents in each well is then homogenized with a pipette and transferred to a centrifuge tube. After centrifugation for 10 min at 1500 rpm the supernatent is removed and the cell pellet is analyzed by fixing in methanol on glass plates. Human HIV positive serum diluted 1:80 or 1:160 is added and incubated for 30 min at 37°. The plate is then washed with phosphate-buffered saline (PBS) containing Ca²⁺ and Mg²⁺. Sheep antihuman conjugate (FITC) is added and after a new incubation the plate is again washed with PBS. Contrast staining is done with Evans blue and after drying the frequency of HIV antigen containing cells is determined in a microscope.

[1] = Cellular toxicity in F5000 cells (cell multiplication); conditions: F5000 human embryo cells, number of cells after 48 hrs; 50 % inhibition of cell multiplication; read-out: TC₅₀(µM) F5000
Procedure: (§1) Test II. Cellular toxicity
(§2) F5000 cells, which are human embryo cells, 1x10⁵ cells per plate, are incubated in Eagle's minimal essential medium, supplemented with Earle's salts, non-essential amino acids, 10 % fetal calf serum, 10 mM hepes, 70 mg/l penicillin and 100 mg/l streptomycin, in absence or presence of test compounds. The number of cells per plate is determined after 48 hrs. Cells incubated in absence of test compounds underwent one cell division cycle. The results are given as TC₅₀, which is the concentration of a compound which gives 50 % inhibition of cell multiplication.

[2] = Cellular toxicity in H9 cells (cell multiplication); conditions: human, number of cells after 48 hrs, 50 % inhibition of cell multiplication, read-out: TC₅₀(µM) H9
Procedure: as §1
H₉ cells, 2x10⁷ cells per plate, are incubated in RPMI-1640 medium containing 10 % fetal calf serum, 70 mg/l penicillin, 100 mg/l streptomycin and 10 mM hepes, in absence or precence of test compounds. The number of cells per plate is determined after 48 hrs. Cells incubated in absence of test compound then underwent two cell division cycles.
as §2

Row | IC50 (HIV (HTLV-IIIB)) | SMILES | CC50 at 48 h [1] | CC50 at 48 h [2]
1 | 10 µM | CCc1cn([C@@H]2C[C@H](O)[C@@H](CO)O2)c(=O)[nH]c1=O [VIP 289, 1-(2-deoxy-α-D-ribofuranosyl)-5-ethyluracil] | 1000 µM | 
2 | 2.5 µM | CCCc1cn([C@@H]2C[C@H](F)[C@@H](CO)O2)c(=O)[nH]c1=O [VSA 409, 1-(3-F-2,3-dideoxy-α-D-ribofuranosyl)-5-propyluracil] |  | 
3 | 0.1 µM | CCc1cn([C@@H]2C[C@H](F)[C@@H](CO)O2)c(=O)[nH]c1=O [VSA 411, 1-(3-F-2,3-dideoxy-α-D-ribofuranosyl)-5-ethyluracil] | 500 µM | 400 µM
4 |  | Cc1cn([C@@H]2C[C@H](F)[C@@H](CO)O2)c(=O)[nH]c1=O [VSA 419, 1-(3-F-2,3-dideoxy-α-D-ribofuranosyl)thymine] | 250 µM | 
